Experimental data: patent publication US20250084056A1, “SUBSTITUTED OXOISOINDOLINYL PIPERIDINE-2,6-DIONE COMPOUNDS” (BRISTOL-MYERS SQUIBB COMPANY, priority 2023, published 2025)

Assays:
[1] = system: pS807/811 Rb1; test: Inhibition of RB1 phosphorylation (Western blot) in HCC1569 cells; type: cell-based; settings: HCC1569 cancer cells, 24 h, FIG. 1B
Protocol: The assay measured the ability of the compound to degrade Cyclin E1, inhibit RB phosphorylation, and to determine the selectivity against degradation of GSPT1 in cancer cells in vitro. HCC1569 cells (ATCC #CRL-2330) were cultured in RPMI media (Gibco, catalog A104910) supplemented with 10% FBS (Gibco, catalog 10091148). Cells were plated in tissue culture-treated 6 well plates at a density of 0.5 million cells per well in 2 mL media. The cells were then incubated overnight in a cell culture incubator (5% CO2 and 37° C.) and allowed to attach to the plate. The following day cells were dosed with compounds at the desired concentrations. Compounds were first resuspended in DMSO to make 10 mM stock, and 20 μM stock was prepared by diluting 10 mM stock in culture media. […] Total protein concentration was measured using a BCA assay kit (Thermo Scientific, cat #P123227). […] Protein was then detected by incubating blots with 2 mL of HRP detection reagent (Thermo scientific cat #A38556) for one minute at room temperature. Excess reagent was drained and gently removed on a Kimwipe and the chemiluminescence signal was detected using Fluorchem imaging system. […] Relative quantification of western blots was performed using ImageJ software, data was then normalized to loading control (β-Actin) first and then to the DMSO-treated sample. […]

[2] = system: MKN1 gastric carcinoma xenograft model; test: In vivo xenograft tumor efficacy study, MKN1; design: species or system mice
[3] = biological target: GSPT1 (Homo sapiens, UniProt P15170+Q96SW2); test: GSPT1 Cellular Degradation Assay (DF15-GSPT1-ePL); type: cell-based; design: expressed in transfected cells; settings: DF15-GSPT1-ePL cells, 20 hours
Sequence of GSPT1 (P15170 whole entry, the tested form may be a part): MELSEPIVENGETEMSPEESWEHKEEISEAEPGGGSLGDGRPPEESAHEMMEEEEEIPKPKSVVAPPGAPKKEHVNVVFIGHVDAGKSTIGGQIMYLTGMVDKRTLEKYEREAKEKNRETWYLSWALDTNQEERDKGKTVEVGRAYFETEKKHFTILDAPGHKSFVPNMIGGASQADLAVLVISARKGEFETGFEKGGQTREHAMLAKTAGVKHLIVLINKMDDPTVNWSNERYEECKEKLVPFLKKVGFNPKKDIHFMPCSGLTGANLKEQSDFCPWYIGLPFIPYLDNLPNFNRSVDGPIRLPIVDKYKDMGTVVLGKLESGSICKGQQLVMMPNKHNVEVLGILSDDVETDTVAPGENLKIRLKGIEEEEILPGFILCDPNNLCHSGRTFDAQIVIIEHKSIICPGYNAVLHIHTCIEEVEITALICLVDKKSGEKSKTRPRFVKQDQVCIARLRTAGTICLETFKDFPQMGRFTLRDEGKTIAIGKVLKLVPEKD
Sequence of GSPT1 (Q96SW2 whole entry, the tested form may be a part): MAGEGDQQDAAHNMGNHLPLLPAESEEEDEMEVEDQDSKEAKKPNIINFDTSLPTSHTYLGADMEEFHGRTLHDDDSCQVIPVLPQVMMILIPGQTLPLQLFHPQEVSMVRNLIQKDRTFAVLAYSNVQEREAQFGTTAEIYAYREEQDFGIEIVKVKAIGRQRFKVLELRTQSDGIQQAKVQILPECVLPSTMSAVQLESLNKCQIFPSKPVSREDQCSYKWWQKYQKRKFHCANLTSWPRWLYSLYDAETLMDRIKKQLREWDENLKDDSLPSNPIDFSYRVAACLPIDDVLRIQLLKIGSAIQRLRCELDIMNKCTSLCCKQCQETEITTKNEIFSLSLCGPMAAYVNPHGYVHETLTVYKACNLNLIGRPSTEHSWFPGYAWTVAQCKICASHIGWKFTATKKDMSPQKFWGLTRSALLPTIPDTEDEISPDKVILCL
Sequence of GSPT1 (Q16531 whole entry partner, the tested form may be a part): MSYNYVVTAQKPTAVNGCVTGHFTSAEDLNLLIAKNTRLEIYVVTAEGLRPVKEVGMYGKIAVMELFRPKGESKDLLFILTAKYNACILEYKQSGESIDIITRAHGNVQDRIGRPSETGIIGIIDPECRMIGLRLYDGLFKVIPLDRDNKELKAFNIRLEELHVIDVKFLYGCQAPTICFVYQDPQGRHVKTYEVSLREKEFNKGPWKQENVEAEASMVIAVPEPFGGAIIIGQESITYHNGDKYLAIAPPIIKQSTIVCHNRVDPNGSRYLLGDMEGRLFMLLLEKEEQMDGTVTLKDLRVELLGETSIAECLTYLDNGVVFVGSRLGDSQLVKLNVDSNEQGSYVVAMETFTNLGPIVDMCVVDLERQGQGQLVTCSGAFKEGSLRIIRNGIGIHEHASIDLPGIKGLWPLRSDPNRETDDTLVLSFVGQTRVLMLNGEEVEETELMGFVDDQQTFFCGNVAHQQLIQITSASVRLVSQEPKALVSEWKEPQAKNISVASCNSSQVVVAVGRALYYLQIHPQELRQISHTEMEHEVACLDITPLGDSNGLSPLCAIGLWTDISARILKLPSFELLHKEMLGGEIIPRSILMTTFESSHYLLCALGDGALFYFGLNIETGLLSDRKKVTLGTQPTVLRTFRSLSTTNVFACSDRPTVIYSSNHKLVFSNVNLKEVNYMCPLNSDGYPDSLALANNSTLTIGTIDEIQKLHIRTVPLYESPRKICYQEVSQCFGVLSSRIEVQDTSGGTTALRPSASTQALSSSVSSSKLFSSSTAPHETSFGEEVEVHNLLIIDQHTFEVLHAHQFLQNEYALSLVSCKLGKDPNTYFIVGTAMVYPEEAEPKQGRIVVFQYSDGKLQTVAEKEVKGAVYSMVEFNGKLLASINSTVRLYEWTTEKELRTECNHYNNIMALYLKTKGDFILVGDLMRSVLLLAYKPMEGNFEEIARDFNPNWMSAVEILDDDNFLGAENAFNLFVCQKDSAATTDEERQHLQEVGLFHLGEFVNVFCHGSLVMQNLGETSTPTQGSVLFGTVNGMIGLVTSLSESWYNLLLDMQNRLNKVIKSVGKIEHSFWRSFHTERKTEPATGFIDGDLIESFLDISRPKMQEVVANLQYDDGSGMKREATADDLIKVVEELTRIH
Summary of the method: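 Human DF15 cells co-expressing a GSPT1–ePL fusion were treated with compound in RPMI 1640/10% FBS for 20 h at 37 °C. GSPT1 level was read by enzyme-fragment-complementation luminescence after 60 min with detection reagent. The reference degrader at […] defined 75% response; DC50 and Dmax were reported.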

Q: What does the source list for `COc1c(COC(=O)Nc2ccc(Oc3ccc(F)c(F)c3)cc2)ccc2c1C(=O)N([C@H]1CCC(=O)NC1=O)C2` (single isomer, unassigned) [Example 35, {2-[(3 S)-2,6-dioxopiperidin-3-yl]-4-methoxy-3-oxo-2,3-dihydro-1H-isoindol-5-yl}methyl N-[4-(3,4-difluorophenoxy)phenyl]carbamate]?
A: inhibition of RB1 phosphorylation [1]: inhibited RB1 phosphorylation; tumor growth inhibition (TGI) ([2]; MKN1 gastric carcinoma xenograft, 30 mpk, QDx28 (as printed in text)): 95%; Tumor efficacy, TGI (tumor growth inhibition) ([2]; MKN1 stomach, 10 mg/kg PO, QDx28): 95% TGI; anti-tumor activity ([2]; MKN1 xenografts, repeated dosing): dose-dependent anti-tumor activity; DC50 [3]: > 14 µM; Dmax [3]: 46%
